From ChEMBL document CHEMBL1201862, “PubChem BioAssay data set” (2004)
Active and inactive are the calls of the source.

Tests used:
[1] = Luminescence Cell-Based Dose Retest to Confirm Inhibitors of Cancer Stem Cells. [Related pubchem assays (depositor defined):AID2717, AID2721]; format: functional; conditions: Homo sapiens
[2] = NIH3T3 cell viability loss – ATP luminescence, mouse fibroblasts, counter-screen, dose response (AID 2010); format: functional, cell-based;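 further: cells exposed to compound for about 90 hours before reading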
[3] = target: Induced myeloid leukemia cell differentiation protein Mcl-1 (Homo sapiens, UniProt Q07820); format: functional
Vero = experiment: cells; format: functional; conditions: Chlorocebus sabaeus
Protein skinhead-1 = target: T1, Protein skinhead-1 (Caenorhabditis elegans, UniProt P34707); format: functional
T1 sequence (P34707 whole entry): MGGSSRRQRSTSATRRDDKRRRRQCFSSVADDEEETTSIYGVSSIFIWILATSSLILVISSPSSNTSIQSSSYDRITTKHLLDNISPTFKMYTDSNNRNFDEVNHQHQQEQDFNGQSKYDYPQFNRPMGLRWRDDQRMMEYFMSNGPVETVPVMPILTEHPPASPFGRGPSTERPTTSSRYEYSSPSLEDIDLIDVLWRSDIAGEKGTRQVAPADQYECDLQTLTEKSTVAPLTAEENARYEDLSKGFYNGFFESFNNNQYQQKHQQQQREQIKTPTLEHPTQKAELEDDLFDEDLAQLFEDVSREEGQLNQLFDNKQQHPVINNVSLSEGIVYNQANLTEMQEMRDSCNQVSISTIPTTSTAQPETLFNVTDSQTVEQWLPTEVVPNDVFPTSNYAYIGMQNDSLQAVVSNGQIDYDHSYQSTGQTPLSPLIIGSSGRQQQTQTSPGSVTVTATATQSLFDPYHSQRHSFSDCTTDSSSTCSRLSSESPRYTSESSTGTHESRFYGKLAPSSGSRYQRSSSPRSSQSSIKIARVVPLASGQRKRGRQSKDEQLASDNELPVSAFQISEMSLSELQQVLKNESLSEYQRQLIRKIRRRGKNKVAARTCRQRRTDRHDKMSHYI

[4] = target: T2, Heat shock factor protein 1 (Mus musculus, UniProt P38532); experiment: enhancement of HSF1-driven luciferase signal – cell-based, NIH3T3, luminescence, dose retest, confirmation (AID 435004); format: functional;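 further: stress induced by proteasome inhibitor MG132 added 30 min after compound; luciferase reporter driven by HSF1 response element in NIH3T3 cells; actives raise luminescence as potentiators of the MG132 stress response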
T2 sequence (P38532 whole entry): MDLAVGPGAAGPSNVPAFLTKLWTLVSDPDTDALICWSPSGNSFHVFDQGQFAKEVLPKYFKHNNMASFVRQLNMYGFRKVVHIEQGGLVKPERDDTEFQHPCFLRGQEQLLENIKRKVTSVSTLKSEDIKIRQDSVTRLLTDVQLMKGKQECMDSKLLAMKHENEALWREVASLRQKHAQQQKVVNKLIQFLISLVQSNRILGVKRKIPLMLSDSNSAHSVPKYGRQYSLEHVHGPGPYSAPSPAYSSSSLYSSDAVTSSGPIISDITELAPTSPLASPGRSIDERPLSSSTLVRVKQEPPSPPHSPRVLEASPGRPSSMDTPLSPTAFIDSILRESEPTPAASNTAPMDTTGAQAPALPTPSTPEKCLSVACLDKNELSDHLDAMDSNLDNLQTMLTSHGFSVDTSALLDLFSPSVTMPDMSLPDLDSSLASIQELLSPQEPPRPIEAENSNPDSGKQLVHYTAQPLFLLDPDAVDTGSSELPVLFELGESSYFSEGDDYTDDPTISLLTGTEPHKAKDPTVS

[5] = Trypanosoma cruzi growth suppression in host cells – NIH3T3 host cells, beta-gal luminescence, confirmation (AID 2044); format: functional, cell-based;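 further: intracellular parasites grown in NIH/3T3 mouse fibroblasts as host cells; luminescent beta-galactosidase reporter signal from transgenic T. cruzi replicating inside host cells; inhibitors lower the luminescence signal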
[6] = target: T3, Carboxy-terminal domain RNA polymerase II polypeptide A small phosphatase 1 (Homo sapiens, UniProt Q9GZU7); experiment: CTDSP1 inhibitors, concentration-response, biochemical, absorbance readout, ultra-high-throughput screen actives (AID 540297); format: functional
T3 sequence (Q9GZU7 whole entry): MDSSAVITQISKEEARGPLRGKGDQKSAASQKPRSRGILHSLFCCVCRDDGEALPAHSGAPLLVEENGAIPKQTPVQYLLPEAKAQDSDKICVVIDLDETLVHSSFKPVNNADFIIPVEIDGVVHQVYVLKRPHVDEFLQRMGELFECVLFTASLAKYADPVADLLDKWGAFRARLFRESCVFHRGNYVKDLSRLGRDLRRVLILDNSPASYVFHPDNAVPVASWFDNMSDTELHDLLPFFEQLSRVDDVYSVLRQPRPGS

Cytochrome P450 3A4 = Cytochrome P450 3A4 (Homo sapiens, UniProt P08684);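 further: CYP3A4 tested as one member of a cytochrome P450 panel screen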
Cytochrome P450 2C9 = Cytochrome P450 2C9 (Homo sapiens, UniProt P11712)
Fatty acid synthase [7] = target: T4, Fatty acid synthase (Homo sapiens, UniProt P49327); experiment: inhibition of human FAS-TE enzyme activity – biochemical, kinetic fluorescence intensity, dose response (AID 624326); format: functional;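 further: rate of fluorescence rise from hydrolysis of a fluorogenic O-methyl fluorescein ester substrate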
Fatty acid synthase [8] = target: T4, Fatty acid synthase; experiment: inhibition of human FAS-TE enzyme activity – biochemical, endpoint fluorescence intensity, uHTS hits, dose response (AID 624327); format: functional;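 further: fluorescence from hydrolysis of an O-methyl fluorescein acyl ester substrate by the enzyme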
[9] = viability of HCT116 lacking mutant beta-catenin – cell-based, human colon tumor, dose response (AID 1045); format: functional;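 further: HCT116 colon tumor cells with beta catenin knocked out; cells exposed to compound for 60 hours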
Streptococcus = experiment: GAS UMAA2166 growth inhibition – luminescence, BacTiterGlo, counter-screen for streptokinase expression inhibitor project, dose response (AID 1915); format: functional, organism-based;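 further: potency for reduction of bacterial viability or growth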
[10] = viability of uninfected HEp-2 cells – cell-based, HTS, cytotoxicity control for RSV inhibitor project, dose response (AID 2410); format: functional; conditions: human respiratory syncytial virus
[11] = tested on: Streptococcus sp. 'group A'; experiment: Streptococcus pyogenes SK(-)GAS viability under kanamycin – luminescence, BacTiterGlo, confirmation, counter-screen for streptokinase expression inhibitor project, dose response (AID 1900); format: functional, organism-based
[12] = viability of PTEN-deleted HCT116 cells – cell-based, HCT116 PTEN knockout, dose response (AID 1047); format: functional;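 further: HCT116 colon tumor cells with PTEN knocked out; cells exposed to compound for 60 hours before readout; potency for loss of cell viability measured by luminescence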
Streptokinase A = target: T5, Streptokinase A (Streptococcus pyogenes serotype M1, UniProt P10520); experiment: viability-normalized secreted streptokinase activity reduction – plasminogen activation absorbance, OD405, dose response (AID 1914); format: functional, Streptococcus pyogenes M1 GAS;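 further: secreted streptokinase activity via plasminogen activation per viability signal from cell pellet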
T5 sequence (P10520 whole entry): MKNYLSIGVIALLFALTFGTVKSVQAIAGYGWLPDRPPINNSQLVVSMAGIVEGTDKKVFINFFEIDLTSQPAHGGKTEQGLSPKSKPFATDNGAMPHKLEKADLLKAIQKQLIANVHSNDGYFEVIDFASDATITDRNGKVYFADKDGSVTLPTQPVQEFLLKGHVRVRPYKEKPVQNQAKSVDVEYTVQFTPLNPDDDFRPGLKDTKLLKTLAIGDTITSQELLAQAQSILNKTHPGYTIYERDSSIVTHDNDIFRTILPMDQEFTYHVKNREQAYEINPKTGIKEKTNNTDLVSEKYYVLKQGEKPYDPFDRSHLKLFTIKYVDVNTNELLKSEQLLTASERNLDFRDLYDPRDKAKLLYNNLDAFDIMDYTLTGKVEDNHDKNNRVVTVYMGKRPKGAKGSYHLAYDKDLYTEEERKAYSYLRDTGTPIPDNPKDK

Cytochrome P450 1A2 = target: T6, Cytochrome P450 1A2 (Homo sapiens, UniProt P05177);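 further: PubChem cytochrome P450 panel assay, CYP1A2 panel member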
T6 sequence (P05177 whole entry): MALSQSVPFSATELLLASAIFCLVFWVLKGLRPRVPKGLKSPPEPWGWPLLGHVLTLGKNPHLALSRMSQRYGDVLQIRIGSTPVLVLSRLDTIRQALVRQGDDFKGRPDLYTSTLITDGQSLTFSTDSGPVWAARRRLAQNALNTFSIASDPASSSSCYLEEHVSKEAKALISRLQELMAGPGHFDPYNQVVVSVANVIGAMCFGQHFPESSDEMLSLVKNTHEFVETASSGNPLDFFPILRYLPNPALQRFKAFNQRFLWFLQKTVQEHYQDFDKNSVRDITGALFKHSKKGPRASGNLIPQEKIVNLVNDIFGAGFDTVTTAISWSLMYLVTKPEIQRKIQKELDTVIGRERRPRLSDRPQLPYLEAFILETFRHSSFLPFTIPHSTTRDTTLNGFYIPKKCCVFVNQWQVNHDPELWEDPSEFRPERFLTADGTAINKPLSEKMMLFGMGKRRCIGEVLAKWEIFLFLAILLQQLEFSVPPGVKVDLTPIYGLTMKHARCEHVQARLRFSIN

T4 sequence (P49327 whole entry): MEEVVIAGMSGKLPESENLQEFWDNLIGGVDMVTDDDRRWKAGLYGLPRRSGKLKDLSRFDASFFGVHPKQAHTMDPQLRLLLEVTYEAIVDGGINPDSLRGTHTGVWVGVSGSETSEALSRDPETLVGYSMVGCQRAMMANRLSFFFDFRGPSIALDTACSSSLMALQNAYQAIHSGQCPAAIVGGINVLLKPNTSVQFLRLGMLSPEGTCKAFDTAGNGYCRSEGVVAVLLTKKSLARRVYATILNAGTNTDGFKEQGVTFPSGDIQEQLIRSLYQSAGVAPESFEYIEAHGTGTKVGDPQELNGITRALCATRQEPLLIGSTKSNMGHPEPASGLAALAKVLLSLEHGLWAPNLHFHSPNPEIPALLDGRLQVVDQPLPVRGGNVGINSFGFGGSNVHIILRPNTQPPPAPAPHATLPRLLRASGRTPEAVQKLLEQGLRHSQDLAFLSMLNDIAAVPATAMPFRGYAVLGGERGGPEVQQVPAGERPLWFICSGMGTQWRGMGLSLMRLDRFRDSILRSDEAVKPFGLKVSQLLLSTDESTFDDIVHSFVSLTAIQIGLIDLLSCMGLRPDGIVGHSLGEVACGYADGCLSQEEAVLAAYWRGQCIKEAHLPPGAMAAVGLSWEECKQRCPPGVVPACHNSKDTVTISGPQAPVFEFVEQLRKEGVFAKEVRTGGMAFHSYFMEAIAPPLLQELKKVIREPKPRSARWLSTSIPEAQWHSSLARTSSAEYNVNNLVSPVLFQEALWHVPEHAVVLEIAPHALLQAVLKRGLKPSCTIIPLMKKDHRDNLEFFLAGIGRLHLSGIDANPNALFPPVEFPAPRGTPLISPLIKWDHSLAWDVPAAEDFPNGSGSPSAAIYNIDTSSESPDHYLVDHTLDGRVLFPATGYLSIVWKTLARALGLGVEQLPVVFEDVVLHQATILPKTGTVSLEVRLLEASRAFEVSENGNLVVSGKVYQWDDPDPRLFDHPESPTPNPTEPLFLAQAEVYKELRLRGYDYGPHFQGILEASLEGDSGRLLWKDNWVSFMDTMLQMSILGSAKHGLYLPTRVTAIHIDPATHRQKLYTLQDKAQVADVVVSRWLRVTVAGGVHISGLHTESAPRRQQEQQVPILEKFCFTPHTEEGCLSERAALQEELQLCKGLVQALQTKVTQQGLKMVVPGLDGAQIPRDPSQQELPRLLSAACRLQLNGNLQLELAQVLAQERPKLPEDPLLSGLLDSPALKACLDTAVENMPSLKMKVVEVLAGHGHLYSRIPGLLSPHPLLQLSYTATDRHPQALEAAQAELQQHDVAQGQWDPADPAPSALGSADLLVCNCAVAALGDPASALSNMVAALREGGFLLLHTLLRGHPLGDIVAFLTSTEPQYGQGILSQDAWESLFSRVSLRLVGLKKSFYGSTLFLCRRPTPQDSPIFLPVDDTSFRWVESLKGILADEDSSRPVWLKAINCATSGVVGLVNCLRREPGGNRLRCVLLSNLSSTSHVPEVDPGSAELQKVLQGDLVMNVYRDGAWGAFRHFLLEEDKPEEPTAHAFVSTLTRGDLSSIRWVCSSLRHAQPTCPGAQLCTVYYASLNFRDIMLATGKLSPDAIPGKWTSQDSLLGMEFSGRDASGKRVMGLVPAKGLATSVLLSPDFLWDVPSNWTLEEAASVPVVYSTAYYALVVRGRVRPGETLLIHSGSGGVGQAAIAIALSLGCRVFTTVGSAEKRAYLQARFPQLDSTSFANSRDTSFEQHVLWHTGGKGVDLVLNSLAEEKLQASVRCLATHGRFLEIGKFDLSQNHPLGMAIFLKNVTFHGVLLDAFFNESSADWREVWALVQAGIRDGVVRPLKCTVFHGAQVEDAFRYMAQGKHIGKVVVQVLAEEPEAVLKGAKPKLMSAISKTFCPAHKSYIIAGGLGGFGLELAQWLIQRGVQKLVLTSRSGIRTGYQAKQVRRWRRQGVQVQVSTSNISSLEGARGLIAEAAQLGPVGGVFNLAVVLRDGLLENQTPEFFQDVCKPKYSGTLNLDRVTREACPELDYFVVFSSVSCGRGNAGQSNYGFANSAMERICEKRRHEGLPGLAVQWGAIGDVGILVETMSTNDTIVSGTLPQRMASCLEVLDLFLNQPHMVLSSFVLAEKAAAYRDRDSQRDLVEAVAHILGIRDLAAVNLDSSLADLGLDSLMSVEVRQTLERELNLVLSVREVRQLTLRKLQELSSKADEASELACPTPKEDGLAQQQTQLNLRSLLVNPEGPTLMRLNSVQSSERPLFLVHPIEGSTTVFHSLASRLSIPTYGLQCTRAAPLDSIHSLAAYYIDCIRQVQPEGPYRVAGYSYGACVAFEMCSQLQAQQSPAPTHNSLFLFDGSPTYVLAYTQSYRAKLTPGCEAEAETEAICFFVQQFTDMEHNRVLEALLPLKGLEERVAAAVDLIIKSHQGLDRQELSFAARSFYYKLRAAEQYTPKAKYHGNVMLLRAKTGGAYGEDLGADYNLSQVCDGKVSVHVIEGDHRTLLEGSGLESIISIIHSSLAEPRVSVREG
Chain of Cytochrome P450 2C9 (P11712 whole entry): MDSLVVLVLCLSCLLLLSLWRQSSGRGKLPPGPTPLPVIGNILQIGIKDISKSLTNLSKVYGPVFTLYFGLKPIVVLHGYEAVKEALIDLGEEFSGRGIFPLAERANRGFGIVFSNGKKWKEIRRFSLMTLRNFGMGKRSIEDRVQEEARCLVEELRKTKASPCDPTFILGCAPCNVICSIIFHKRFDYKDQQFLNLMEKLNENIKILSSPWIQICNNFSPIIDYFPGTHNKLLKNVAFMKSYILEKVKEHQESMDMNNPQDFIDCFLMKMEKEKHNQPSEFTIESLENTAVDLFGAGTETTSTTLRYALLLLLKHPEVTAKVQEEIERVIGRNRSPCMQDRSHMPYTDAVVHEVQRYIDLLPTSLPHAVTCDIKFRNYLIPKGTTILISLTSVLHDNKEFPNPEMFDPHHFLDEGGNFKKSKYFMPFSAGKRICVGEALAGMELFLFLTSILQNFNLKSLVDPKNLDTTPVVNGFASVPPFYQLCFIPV
Chain of Induced myeloid leukemia cell differentiation protein Mcl-1 (Q07820 whole entry): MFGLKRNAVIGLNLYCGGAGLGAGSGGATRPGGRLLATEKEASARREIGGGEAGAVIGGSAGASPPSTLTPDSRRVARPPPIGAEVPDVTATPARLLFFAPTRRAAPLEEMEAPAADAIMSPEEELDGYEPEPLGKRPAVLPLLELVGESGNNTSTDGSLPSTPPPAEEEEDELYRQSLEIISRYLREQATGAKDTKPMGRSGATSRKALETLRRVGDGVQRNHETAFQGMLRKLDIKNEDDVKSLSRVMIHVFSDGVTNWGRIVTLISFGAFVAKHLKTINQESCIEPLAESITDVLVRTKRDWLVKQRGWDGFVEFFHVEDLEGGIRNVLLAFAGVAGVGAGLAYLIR
Chain of Cytochrome P450 3A4 (P08684 whole entry): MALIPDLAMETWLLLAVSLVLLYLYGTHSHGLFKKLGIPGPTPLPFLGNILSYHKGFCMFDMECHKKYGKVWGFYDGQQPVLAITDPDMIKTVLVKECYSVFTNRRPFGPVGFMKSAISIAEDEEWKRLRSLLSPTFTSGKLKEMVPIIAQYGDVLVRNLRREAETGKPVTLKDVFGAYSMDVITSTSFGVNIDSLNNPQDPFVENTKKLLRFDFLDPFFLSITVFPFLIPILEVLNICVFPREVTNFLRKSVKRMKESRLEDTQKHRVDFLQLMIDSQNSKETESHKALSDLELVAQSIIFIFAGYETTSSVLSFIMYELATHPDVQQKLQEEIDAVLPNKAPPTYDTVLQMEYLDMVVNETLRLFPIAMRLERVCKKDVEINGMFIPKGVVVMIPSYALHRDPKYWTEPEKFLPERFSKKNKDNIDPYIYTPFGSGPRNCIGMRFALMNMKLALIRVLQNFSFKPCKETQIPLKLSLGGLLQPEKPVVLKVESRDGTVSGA

CCC1CSC(Nc2ccc(C(=O)/C=C/c3cccc(C)c3)cc2)=N1 (stereo not given)
AC50 [1]: 5.77 µM (active)
EC50 [2]: > 60 µM (not active)
IC50 [3]: 1.66 µM (active)
CC50 (Vero): > 25 µM (active)
IC50 (Protein skinhead-1): > 100 µM (inactive)
EC50 [4]: 12.9 µM (active)
EC50 [5]: 3.06 µM (active)

Cc1c(Cl)cnc(NC(=O)COC(=O)c2ccc(S(=O)(=O)NCc3ccco3)cc2)c1Cl
IC50 [6]: 8.67 µM (active)

COc1ccc(CC(=O)N2CCCC(C)C2)cc1 (stereo not given)
IC50 (Protein skinhead-1): > 100 µM (inactive)

Cc1ccc2[nH]c(/C(C#N)=C\c3ccc(Oc4ccc(C(F)(F)F)cc4[N+](=O)[O-])cc3)nc2c1
IC50 [6]: 2.42 µM (active)

O=C(Oc1ccc(C(=S)N2CCOCC2)cc1Br)c1cc(Cl)ccc1Cl
AC50 (Cytochrome P450 3A4): 12.6 µM (inconclusive)
EC50 [4]: 68.8 µM (active)
AC50 (Cytochrome P450 2C9): inconclusive

O=C(C1CCN(S(=O)(=O)c2c(Cl)cccc2Cl)CC1)N1CCCC1
IC50 (Protein skinhead-1): > 100 µM (inactive)

O=C(/C=C/c1cccc([N+](=O)[O-])c1)N1CCN(c2ccccc2F)CC1
IC50 (Fatty acid synthase [7]): 6.52 µM (active)
IC50 (Fatty acid synthase [8]): 11.6 µM (active)

COc1ccc(N(C(=O)CNC(=O)c2ccco2)C(C(=O)NC2CCCCC2)c2cccnc2)cc1 (stereo not given)
IC50 (Protein skinhead-1): > 100 µM (inactive)

COc1ccc2cc3cc(C(=O)N4CCCCCC4)oc3nc2c1
IC50 (Fatty acid synthase [7]): 3.37 µM (active)
IC50 (Fatty acid synthase [8]): 3.92 µM (active)

O=C(O)/C(=C/c1ccco1)NC(=O)c1ccccc1
IC50 [6]: 6.04 µM (active)

CCCCOc1ccc(-c2c(C#N)c(N)nc(SCC(N)=O)c2C#N)cc1
EC50 [9]: 21.2 µM (active)
EC50 (Streptococcus): > 150 µM (not active)
CC50 [10]: 19.9 µM (active)
IC50 (Fatty acid synthase [7]): 0.644 µM (active)
EC50 [11]: 6.77 µM (active)
EC50 [12]: 15.8 µM (active)
EC50 (Streptokinase A): > 150 µM (not active)
IC50 (Fatty acid synthase [8]): 1.12 µM (active)

CC(C)(C)c1ccc2c(c1)OC(C(=O)N/N=C/c1ccc([N+](=O)[O-])o1)CO2 (stereo not given)
EC50 (Streptococcus): 10.3 µM (active)
EC50 [2]: > 60 µM (not active)
CC50 (Vero): > 25 µM (active)
IC50 [6]: 5.41 µM (active)
EC50 [11]: 5.27 µM (active)
EC50 (Streptokinase A): 5.82 µM (active)
EC50 [5]: 0.102 µM (active)

Cc1[nH]n(-c2ccccc2)c(=O)c1CCOC(=O)c1ccc(C(F)(F)F)cc1
AC50 (Cytochrome P450 2C9): inconclusive
AC50 (Cytochrome P450 1A2): 15.8 µM (inconclusive)

CCOC(=O)c1cc2c(=O)n3ccccc3nc2n(Cc2ccco2)/c1=N/C(=O)c1ccc(OC)cc1
IC50 (Fatty acid synthase [7]): 80 µM (inactive)
IC50 (Fatty acid synthase [8]): 14.6 µM (active)

O=c1c2ccccc2sc2ccccc12
IC50 (Protein skinhead-1): 59.3 µM (inactive)
